Results published in patent publication US20060069132A1, “Azolecarboxamide herbicides” (priority 2004, published 2006).

Key:
canarygrass = assay: Test C postemergence herbicide test; type: in vivo, Phalaris minor
Experimental: (§1) At the same time, plants selected from these crop and weed species and also winter barley (Hordeum vulgare L.), blackgrass (Alopecurus myosuroides Huds.), canarygrass (Phalaris minor Retz.), chickweed (Stellaria media (L.) Vill.), downy bromegrass (Bromus tectorum L.), green foxtail (Setaria viridis (L.) Beauv.), Italian ryegrass (Lolium multiflorum Lam.), wheat (Triticum aestivum L.), wild oat (Avenafatua L.) and windgrass (Apera spica-venti (L.) Beauv.) were treated with postemergence applications of some of the test chemicals formulated in the same manner. Plants ranged in height from 2 to 18 cm (1- to 4-leaf stage) for postemergence treatments. Plant species in the flooded paddy test consisted of rice (Oryza sativa), smallflower umbrella sedge (Cyperus difformis L.), ducksalad (Heteranthera limosa (Sw.) Willd.) and barnyardgrass (Echinochloa crus-galli (L.) Beauv.) grown to the 2-leaf stage for testing. Treated plants and controls were maintained in a greenhouse for 12 to 14 days, after which time all species were compared to controls and visually evaluated. Plant response ratings, summarized in Table C, are based on a scale of 0 to 100 where 0 is no effect and 100 is complete control. A dash (-) response means no test result.

lambsquarters = assay: Test B pre-/postemergence herbicide test; type: in vivo, Chenopodium album
Method in brief: (§2)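 Visual rating, 0 (no effect) to 100 (complete control), versus untreated controls after 13–15 d in greenhouse. Pre- and postemergence applications (postemergence plants 2–18 cm, 1–4 leaves); flooded paddy arm at 2-leaf stage. Compounds in non-phytotoxic solvent plus surfactant.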

blackgrass [1] = assay: Test C postemergence herbicide test; type: in vivo, Alopecurus myosuroides
Experimental: as §1

cocklebur = assay: Test B pre-/postemergence herbicide test; type: in vivo, Xanthium strumarium
Method in brief: (§3)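 Evaluation is visual, comparing treated with control plants on a scale where 0 means no effect and 100 means full control. Treatments were preemergence, or postemergence on seedlings 2–18 cm tall, and held 13–15 days in the greenhouse.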

wild oat [2] = assay: Test B postemergence herbicide test; type: in vivo, Avena fatua
Method in brief: (§4)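 Read-out: visual comparison with controls, scored 0 to 100, where 100 means complete control and 0 no effect. Formulated chemicals were applied postemergence to plants 2–18 cm tall (1- to 4-leaf), or to flooded-paddy plants at the 2-leaf stage, then held 13 to 15 days under glass.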

windgrass = assay: Test C postemergence herbicide test; type: in vivo, Apera spica-venti
Experimental: as §1

rice = assay: Test B flooded paddy test; type: in vivo, Oryza sativa; settings: 1000 g ai/ha, scale 0 to 100 (0 no effect, 100 complete control)
Method in brief: as §4

ducksalad = assay: Test B flooded paddy test; type: in vivo, Heteranthera limosa; settings: 1000 g ai/ha, scale 0 to 100 (0 no effect, 100 complete control)
Method in brief: (§5)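 Each value is a visual 0–100 response rating taken against controls 13 to 15 days after treatment in the greenhouse. Plants received formulated chemical postemergence at the 1- to 4-leaf stage or, in flooded paddy, at the 2-leaf stage.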

morningglory = assay: Test B pre-/postemergence herbicide test; type: in vivo, Ipomoea coccinea
Method in brief: as §3

large crabgrass = assay: Test B pre-/postemergence herbicide test; type: in vivo, Digitaria sanguinalis
Method in brief: as §2

pigweed = assay: Test B pre-/postemergence herbicide test; type: in vivo, Amaranthus retroflexus
Method in brief: as §2

wild oat [3] = assay: Test C postemergence herbicide test; type: in vivo, Avenafatua
Experimental: as §1

winter barley = assay: Test C postemergence herbicide test; type: in vivo, Hordeum vulgare
Experimental: as §1

wheat [4] = assay: Test B postemergence herbicide test; type: in vivo, Triticum aestivum; parameters: key to Wheat plant response rating: 0 = no effect, 100 = complete control
Method in brief: as §4

barnyardgrass [5] = assay: Test B pre-/postemergence herbicide test; type: in vivo, Echinochloa crus-galli; settings: for Barnyardgrass plant response rating: Postemergence, scale 0 (no effect) to 100 (complete control)
Method in brief: as §3

barnyardgrass [6] = assay: Test B flooded paddy test; type: in vivo, Echinochloa crus-galli; settings: 1000 g ai/ha, scale 0 to 100 (0 no effect, 100 complete control)
Method in brief: as §5

green foxtail = assay: Test C postemergence herbicide test; type: in vivo, Setaria viridis
Experimental: as §1

wheat [7] = assay: Test C postemergence herbicide test; type: in vivo, Triticum aestivum
Experimental: as §1

downy bromegrass = assay: Test C postemergence herbicide test; type: in vivo, Bromus tectorum
Experimental: as §1

Surinam grass = assay: Test B pre-/postemergence herbicide test; type: in vivo, Urochloa decumbens
Method in brief: as §2

Italian ryegrass = assay: Test C postemergence herbicide test; type: in vivo, Lolium multiflorum
Experimental: as §1

blackgrass [8] = assay: Test B postemergence herbicide test; type: in vivo, Alopecurus myosuroides
Method in brief: as §5

velvetleaf = assay: Test B pre-/postemergence herbicide test; type: in vivo, Abutilon theophrasti
Method in brief: as §2

[9] = test system: small flower umbrella sedge; assay: Test B flooded paddy test; type: in vivo, Cyperus difformis; settings: 1000 g ai/ha, scale 0 to 100 (0 no effect, 100 complete control)
Method in brief: as §5

giant foxtail = assay: Test B pre-/postemergence herbicide test; type: in vivo, Setaria faberi
Method in brief: as §2

corn = assay: Test B pre-/postemergence herbicide test; type: in vivo, Zea mays
Method in brief: as §2

[10] = Postemergence, 250 g ai/ha, scale 0 to 100, 0 no effect, 100 complete control
[11] = Postemergence, 500 g ai/ha, scale 0 to 100, 0 no effect, 100 complete control
[12] = postemergence, 125 g ai/ha, scale 0 to 100
[13] = postemergence, 62 g ai/ha, scale 0 to 100
[14] = 125 g ai/ha, 0 is no effect, 100 is complete control, preemergence
[15] = Postemergence, 500 g ai/ha, scale 0 (no effect) to 100 (complete control)
[16] = Postemergence, 500 g ai/ha, scale 0 to 100

## C=CCN(CC=C)C(=O)c1ccc(F)c(NC(=O)c2cc(C(C)(C)C)nn2CC)c1 [Compound 431]
canarygrass; [10]
  Plant response rating, Canarygrass: 60
canarygrass; [11]
  Plant response rating, Canarygrass: 60
canarygrass; [12]
  Plant response rating, Canarygrass: 45
canarygrass; [13]
  Plant response rating, Canarygrass: 40
lambsquarters; [14]
  Plant response rating (0 to 100 scale), Lambsquarters: 60
lambsquarters; [15]
  Lambsquarters plant response rating: 60
lambsquarters; [12]
  Lambsquarters plant response rating: 40
Blackgrass [1]; [16]
  Blackgrass plant response rating: 60
Blackgrass [1]; [10]
  Plant response rating, Blackgrass: 60
Blackgrass [1]; [12]
  Plant response rating, Blackgrass: 55
Blackgrass [1]; [13]
  Plant response rating, Blackgrass: 45
cocklebur; [14]
  Plant response rating (0 to 100 scale), Cocklebur: 0
cocklebur; [15]
  Cocklebur plant response rating: 60
cocklebur; [12]
  Cocklebur plant response rating: 30
Wild oat [2]; [15]
  Oat, Wild plant response rating: 50
Wild oat [2]; [12]
  Oat, Wild plant response rating: 30
windgrass; [11]
  Plant response rating, Windgrass: 60
windgrass; [12]
  Plant response rating, Windgrass: 40
windgrass; [13]
  Plant response rating, Windgrass: 40
rice
  Rice plant response rating: 30
ducksalad
  Ducksalad plant response rating: 80
morningglory; [14]
  Plant response rating (0 to 100 scale), Morningglory: 0
morningglory; [15]
  Morningglory plant response rating: 70
morningglory; [12]
  Morningglory plant response rating: 40
Large crabgrass; [14]
  Plant response rating (0 to 100 scale), Crabgrass, Large: 60
Large crabgrass; [15]
  Crabgrass, Large plant response rating: 30
Large crabgrass; [12]
  Crabgrass, Large plant response rating: 20
pigweed; [14]
  Plant response rating (0 to 100 scale), Pigweed: 40
pigweed; [15]
  Pigweed plant response rating: 70
pigweed; [12]
  Pigweed plant response rating: 50
Wild oat [3]; [11]
  Plant response rating, Oat, Wild: 65
Wild oat [3]; [12]
  Plant response rating, Oat, Wild: 55
Wild oat [3]; [13]
  Plant response rating, Oat, Wild: 45
Winter barley; [16]
  Barley, Winter plant response rating: 60
Winter barley; [10]
  Plant response rating, Barley, Winter: 45
Winter barley; postemergence, 125 g ai/ha, scale 0 to 100 (0 no effect, 100 complete control)
  Plant response rating, Barley, Winter: 40
Winter barley; postemergence, 62 g ai/ha, scale 0 to 100 (0 no effect, 100 complete control)
  Plant response rating, Barley, Winter: 40
Wheat [4]; 500 g ai/ha, scale 0 to 100, 0 no effect, 100 complete control, preemergence
  Wheat plant response rating: 10
Wheat [4]; [15]
  Wheat plant response rating: 30
Wheat [4]; [12]
  Wheat plant response rating: 30
Barnyardgrass [5]; [14]
  Plant response rating (0 to 100 scale), Barnyardgrass: 10
Barnyardgrass [5]; 125 g ai/ha
  Barnyardgrass plant response rating: 10
Barnyardgrass [5]; 500 g ai/ha
  Barnyardgrass plant response rating: 20
Barnyardgrass [6]
  Barnyardgrass plant response rating: 60
Green foxtail; [10]
  Plant response rating, Foxtail, Green: 60
Green foxtail; [11]
  Plant response rating, Foxtail, Green: 65
Green foxtail; [12]
  Plant response rating, Foxtail, Green: 60
Green foxtail; [13]
  Plant response rating, Foxtail, Green: 45
Wheat [7]; [11]
  Plant response rating, Wheat: 45
Wheat [7]; [12]
  Plant response rating, Wheat: 40
Wheat [7]; [13]
  Plant response rating, Wheat: 40
Downy bromegrass; [10]
  Plant response rating, Bromegrass, Downy: 55
Downy bromegrass; [11]
  Plant response rating, Bromegrass, Downy: 60
Downy bromegrass; [12]
  Plant response rating, Bromegrass, Downy: 45
Downy bromegrass; [13]
  Plant response rating, Bromegrass, Downy: 40
Surinam grass; [14]
  Plant response rating (0 to 100 scale), Surinam Grass: 10
Surinam grass; [15]
  Surinam Grass plant response rating: 30
Surinam grass; [12]
  Surinam Grass plant response rating: 20
Italian ryegrass; [11]
  Plant response rating, Ryegrass, Italian: 55
Italian ryegrass; [12]
  Plant response rating, Ryegrass, Italian: 45
Italian ryegrass; [13]
  Plant response rating, Ryegrass, Italian: 40
Blackgrass [8]; [15]
  Blackgrass plant response rating: 50
Blackgrass [8]; [12]
  Blackgrass plant response rating: 30
velvetleaf; [14]
  Plant response rating (0 to 100 scale), Velvetleaf: 20
velvetleaf; [15]
  Velvetleaf plant response rating: 40
velvetleaf; [12]
  Velvetleaf plant response rating: 20
[9]
  Sedge, Umbrella plant response rating: 80
Giant foxtail; [14]
  Plant response rating (0 to 100 scale), Foxtail, Giant: 50
Giant foxtail; [15]
  Foxtail, Giant plant response rating: 30
Giant foxtail; [12]
  Foxtail, Giant plant response rating: 20
corn; [14]
  Plant response rating (0 to 100 scale), Corn: 0
corn; [15]
  Corn plant response rating: 20
corn; [12]
  Corn plant response rating: 20
